Test results: ChEMBL document CHEMBL5465560, “Selectivity Literature for EUbOPEN Chemogenomic Library” (2024)
Values belong to the molecule of their own block, whether it stands above or below them.

Key:
[1] = target: Dual specificity mitogen-activated protein kinase kinase 2 (Homo sapiens) (UniProt P36507)
[2] = target: Rho-associated protein kinase 2 (Homo sapiens, UniProt O75116); experiment: Selectivity interaction (Kinase panel (Invitrogen)) EUB0000639a ROCK2; settings: at 200 nM
[3] = target: Mitogen-activated protein kinase 14 (Homo sapiens, UniProt Q16539); experiment: Selectivity interaction (ActivX KiNativ screen (kinase selectivity in THP-1 cell lysates)) EUB0000639a MAPK14; assay type: subcellular; settings: lysate, at 0.2 µM
Chain of Mitogen-activated protein kinase 14 (Q16539 whole entry): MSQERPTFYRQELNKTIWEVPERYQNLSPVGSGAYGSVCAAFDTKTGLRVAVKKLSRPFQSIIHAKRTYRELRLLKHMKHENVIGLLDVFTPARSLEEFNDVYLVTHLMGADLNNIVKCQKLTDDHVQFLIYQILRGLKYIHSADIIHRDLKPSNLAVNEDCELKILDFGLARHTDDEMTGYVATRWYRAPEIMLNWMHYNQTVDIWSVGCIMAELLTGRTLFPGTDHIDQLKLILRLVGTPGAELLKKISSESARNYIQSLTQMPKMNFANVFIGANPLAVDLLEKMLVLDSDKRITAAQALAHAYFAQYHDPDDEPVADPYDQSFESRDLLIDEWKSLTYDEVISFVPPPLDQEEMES

[4] = target: T1, Mitogen-activated protein kinase kinase kinase 6 (Homo sapiens) (UniProt O95382); experiment: Selectivity interaction (ActivX KiNativ screen (kinase selectivity in THP-1 cell lysates)) EUB0000639a MAP3K6; assay type: subcellular; settings: lysate
T1 sequence (whole entry): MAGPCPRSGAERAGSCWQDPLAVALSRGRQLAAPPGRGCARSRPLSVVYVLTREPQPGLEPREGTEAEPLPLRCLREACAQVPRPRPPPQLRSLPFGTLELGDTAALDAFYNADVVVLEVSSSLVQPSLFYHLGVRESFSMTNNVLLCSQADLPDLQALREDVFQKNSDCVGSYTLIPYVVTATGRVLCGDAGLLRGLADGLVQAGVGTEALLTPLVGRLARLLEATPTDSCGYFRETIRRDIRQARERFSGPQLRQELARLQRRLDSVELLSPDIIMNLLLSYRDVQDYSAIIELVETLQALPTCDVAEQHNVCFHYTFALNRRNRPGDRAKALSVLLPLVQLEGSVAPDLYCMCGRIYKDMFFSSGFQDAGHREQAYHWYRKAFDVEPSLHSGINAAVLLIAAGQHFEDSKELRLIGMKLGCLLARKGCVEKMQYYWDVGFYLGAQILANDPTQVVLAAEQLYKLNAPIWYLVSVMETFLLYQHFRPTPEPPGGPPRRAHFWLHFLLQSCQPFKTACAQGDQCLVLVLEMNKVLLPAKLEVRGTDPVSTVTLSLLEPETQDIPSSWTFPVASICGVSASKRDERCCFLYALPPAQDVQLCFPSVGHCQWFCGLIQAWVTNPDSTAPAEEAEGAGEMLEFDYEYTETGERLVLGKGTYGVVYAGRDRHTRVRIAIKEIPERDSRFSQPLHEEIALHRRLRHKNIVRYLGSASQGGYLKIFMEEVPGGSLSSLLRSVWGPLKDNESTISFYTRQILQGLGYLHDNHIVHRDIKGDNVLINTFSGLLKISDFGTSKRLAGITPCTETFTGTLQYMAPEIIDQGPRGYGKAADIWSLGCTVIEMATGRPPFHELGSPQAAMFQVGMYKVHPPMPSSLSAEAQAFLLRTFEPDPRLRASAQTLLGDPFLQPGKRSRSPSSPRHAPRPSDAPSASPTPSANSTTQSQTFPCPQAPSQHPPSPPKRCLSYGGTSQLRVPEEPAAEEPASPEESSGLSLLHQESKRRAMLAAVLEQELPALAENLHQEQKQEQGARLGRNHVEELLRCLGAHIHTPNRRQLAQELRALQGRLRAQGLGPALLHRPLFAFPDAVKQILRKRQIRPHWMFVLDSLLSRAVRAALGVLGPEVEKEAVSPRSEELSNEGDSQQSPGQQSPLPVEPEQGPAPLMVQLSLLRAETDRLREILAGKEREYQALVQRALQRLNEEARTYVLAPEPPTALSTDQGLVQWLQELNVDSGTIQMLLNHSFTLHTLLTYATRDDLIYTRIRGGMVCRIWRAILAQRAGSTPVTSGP

[5] = target: Tyrosine-protein kinase CSK (Homo sapiens) (UniProt P41240); settings: at 10 µM
Chain of Tyrosine-protein kinase CSK (Homo sapiens) (P41240 2-450 limits assumed): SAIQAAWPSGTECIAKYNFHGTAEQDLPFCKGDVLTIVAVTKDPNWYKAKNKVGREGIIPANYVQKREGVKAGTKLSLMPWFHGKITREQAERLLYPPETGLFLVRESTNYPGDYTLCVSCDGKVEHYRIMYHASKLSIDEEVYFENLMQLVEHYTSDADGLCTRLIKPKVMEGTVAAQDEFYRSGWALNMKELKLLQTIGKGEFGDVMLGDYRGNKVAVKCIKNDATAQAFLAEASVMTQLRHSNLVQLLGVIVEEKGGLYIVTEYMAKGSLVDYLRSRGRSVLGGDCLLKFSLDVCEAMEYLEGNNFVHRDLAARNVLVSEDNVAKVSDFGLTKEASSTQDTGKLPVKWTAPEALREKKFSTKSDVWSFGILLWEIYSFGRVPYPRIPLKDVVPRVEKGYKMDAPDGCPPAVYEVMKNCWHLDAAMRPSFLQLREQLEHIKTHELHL

[6] = target: Casein kinase II subunit alpha (Homo sapiens, UniProt P68400); experiment: Selectivity interaction (Upstate Kinase Profiler service (Millipore)) EUB0000056c CSNK2A1; settings: at 1 µM
Chain of Casein kinase II subunit alpha (P68400 whole entry, looked up): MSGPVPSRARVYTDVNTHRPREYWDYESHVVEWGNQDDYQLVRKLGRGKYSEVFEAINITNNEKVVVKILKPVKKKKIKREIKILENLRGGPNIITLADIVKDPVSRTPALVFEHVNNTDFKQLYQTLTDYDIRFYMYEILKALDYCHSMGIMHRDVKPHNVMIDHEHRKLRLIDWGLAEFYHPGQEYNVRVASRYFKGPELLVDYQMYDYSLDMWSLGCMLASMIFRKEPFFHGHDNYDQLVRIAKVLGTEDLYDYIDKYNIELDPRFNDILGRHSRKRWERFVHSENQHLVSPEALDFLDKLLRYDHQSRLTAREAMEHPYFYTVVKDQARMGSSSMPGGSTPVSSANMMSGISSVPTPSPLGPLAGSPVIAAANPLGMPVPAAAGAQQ

[7] = target: Death-associated protein kinase 3 (Homo sapiens) (UniProt O43293); experiment: Selectivity interaction (KinomeScan (DiscoverX)) EUB0000045b DAPK3
Chain of Death-associated protein kinase 3 (Homo sapiens) (O43293 whole entry, looked up): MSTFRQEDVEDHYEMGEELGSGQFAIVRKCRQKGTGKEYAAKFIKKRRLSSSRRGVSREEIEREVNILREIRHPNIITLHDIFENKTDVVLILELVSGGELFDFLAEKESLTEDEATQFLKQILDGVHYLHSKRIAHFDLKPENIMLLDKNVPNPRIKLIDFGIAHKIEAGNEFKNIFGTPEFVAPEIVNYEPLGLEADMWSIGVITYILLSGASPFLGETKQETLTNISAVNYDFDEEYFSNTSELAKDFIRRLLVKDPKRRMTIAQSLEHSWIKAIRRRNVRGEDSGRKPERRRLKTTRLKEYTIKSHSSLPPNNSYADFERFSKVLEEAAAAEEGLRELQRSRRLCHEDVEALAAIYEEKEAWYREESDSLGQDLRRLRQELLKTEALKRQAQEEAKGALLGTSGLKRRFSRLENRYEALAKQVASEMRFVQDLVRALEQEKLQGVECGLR

[8] = target: T2, Activin receptor type-1 (Homo sapiens) (UniProt Q04771); experiment: Selectivity interaction (KinomeScan (DiscoverX)) EUB0000655a ACVR1; settings: at 10 µM
T2 sequence (whole entry): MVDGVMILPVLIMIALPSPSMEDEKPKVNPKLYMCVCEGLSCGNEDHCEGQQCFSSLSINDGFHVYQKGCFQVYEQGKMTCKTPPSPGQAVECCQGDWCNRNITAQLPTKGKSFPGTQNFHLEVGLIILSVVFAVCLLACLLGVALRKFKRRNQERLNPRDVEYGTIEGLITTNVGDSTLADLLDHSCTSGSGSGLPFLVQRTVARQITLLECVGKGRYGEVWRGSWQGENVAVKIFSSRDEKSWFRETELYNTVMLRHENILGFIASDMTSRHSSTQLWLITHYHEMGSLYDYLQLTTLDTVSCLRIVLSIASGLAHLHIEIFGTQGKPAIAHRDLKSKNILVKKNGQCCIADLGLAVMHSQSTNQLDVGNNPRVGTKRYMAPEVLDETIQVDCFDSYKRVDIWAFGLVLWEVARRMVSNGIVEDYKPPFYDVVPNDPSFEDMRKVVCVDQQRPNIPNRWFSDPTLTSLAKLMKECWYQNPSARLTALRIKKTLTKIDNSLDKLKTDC

[9] = target: LIM domain kinase 1 (Homo sapiens) (UniProt P53667); experiment: Selectivity interaction (KinomeScan (DiscoverX)) EUB0001619a LIMK1; settings: at 1 µM
Chain of LIM domain kinase 1 (Homo sapiens) (P53667 whole entry, looked up, the tested form may be a part): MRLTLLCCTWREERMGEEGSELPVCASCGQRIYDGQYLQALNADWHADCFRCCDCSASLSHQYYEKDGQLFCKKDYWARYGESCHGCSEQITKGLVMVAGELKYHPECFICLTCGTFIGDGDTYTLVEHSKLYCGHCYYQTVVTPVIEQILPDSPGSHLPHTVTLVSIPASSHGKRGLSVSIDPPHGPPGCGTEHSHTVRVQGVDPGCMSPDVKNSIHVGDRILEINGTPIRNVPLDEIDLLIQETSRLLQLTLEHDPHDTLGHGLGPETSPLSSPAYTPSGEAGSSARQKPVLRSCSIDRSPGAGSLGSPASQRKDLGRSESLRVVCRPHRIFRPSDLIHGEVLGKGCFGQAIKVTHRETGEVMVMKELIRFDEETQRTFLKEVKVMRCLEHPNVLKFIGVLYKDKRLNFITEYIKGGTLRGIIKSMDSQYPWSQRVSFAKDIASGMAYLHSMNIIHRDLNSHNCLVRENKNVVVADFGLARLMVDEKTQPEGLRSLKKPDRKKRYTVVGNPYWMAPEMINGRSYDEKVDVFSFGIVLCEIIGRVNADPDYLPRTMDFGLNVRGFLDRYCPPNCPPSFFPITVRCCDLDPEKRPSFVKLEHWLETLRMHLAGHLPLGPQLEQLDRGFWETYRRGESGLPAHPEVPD

Chain of Rho-associated protein kinase 2 (O75116 whole entry, looked up): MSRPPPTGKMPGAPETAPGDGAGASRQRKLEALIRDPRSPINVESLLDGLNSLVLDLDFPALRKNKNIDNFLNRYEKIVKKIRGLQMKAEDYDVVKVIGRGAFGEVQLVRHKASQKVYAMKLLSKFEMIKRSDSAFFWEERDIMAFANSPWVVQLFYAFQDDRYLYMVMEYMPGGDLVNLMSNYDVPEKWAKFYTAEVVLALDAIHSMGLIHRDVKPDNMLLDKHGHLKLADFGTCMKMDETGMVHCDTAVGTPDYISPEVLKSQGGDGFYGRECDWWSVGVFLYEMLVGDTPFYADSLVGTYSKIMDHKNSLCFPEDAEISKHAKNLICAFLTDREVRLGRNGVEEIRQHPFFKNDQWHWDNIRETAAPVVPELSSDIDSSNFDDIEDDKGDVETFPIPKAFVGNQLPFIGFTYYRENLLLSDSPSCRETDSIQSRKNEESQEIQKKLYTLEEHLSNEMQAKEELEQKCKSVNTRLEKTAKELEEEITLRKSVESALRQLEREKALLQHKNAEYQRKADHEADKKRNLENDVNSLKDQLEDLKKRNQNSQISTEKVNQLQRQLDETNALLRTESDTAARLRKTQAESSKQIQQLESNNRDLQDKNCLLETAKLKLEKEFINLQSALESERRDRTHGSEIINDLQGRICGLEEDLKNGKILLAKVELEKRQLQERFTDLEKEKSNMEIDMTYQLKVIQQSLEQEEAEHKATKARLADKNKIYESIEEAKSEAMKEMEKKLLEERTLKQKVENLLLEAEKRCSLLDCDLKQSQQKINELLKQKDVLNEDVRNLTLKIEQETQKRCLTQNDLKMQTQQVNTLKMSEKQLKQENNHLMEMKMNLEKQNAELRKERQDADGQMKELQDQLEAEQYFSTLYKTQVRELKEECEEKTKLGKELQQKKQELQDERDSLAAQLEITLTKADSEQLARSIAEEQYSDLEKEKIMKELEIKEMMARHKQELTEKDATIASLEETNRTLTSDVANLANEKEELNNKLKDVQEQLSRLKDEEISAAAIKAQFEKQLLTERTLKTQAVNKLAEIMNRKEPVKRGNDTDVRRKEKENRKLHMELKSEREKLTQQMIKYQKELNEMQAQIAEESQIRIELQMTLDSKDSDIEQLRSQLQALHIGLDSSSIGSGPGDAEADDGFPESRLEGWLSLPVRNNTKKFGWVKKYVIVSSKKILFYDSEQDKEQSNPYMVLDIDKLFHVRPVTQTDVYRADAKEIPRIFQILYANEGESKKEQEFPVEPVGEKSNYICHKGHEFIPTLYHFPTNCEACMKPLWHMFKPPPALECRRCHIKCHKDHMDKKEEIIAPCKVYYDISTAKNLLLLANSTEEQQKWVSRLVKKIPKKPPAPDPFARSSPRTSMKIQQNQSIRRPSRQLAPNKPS
Chain of Dual specificity mitogen-activated protein kinase kinase 2 (Homo sapiens) (P36507 whole entry): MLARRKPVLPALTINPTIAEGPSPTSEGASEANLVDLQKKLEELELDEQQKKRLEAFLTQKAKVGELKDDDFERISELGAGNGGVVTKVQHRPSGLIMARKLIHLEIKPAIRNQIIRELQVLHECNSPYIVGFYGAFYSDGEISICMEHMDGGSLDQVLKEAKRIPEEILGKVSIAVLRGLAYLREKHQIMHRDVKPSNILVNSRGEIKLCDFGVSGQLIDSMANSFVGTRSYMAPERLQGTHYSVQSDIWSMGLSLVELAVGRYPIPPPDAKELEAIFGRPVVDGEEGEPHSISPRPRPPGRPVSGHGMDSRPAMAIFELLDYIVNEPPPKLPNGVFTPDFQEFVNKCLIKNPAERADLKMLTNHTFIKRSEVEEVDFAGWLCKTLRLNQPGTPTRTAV

Kdapp [1]: 9 nM
SMILES: CC(=O)Nc1cccc(-n2c(=O)n(C3CC3)c(=O)c3c(Nc4ccc(I)cc4F)n(C)c(=O)c(C)c32)c1

% of inhibition [2]: 18.6%
% of inhibition [3]: -1.8%
% of inhibition ([4]; at 0.01 µM): -12.1%
% of inhibition ([4]; at 0.04 µM): -3.2%
% of inhibition ([4]; at 0.2 µM): 0%
% of inhibition ([4]; at 1 µM): -6.5%
% of inhibition ([4]; at 5 µM): -21.9%
SMILES: CC[C@@H]1[C@H](F)C(=O)N[C@@H]1COc1nccc2cc(C(N)=O)c(OC)cc12 [ZIMLOVISERTIB]

SMILES: COCC(=O)NC/C=C/c1ccc2ncnc(Nc3ccc(Oc4ccc(C)nc4)c(C)c3)c2c1 [CP-724714]
% of control [5]: 59%

% of inhibition [6]: 15%
SMILES: Cc1ccc(-c2ccc3c(ccc4sc5c(c43)NC[C@@H](C)NC5=O)n2)cn1

SMILES: C=CC(=O)Nc1cc(-n2c(=O)ccc3cnc4ccc(-c5ccc(NS(C)(=O)=O)cc5)cc4c32)ccc1C
% of control ([7]; at 1 µM): 100%
% of control ([7]; at 10 µM): 60%

SMILES: CN(C)CCOc1ccc(-c2nc(-c3ccncc3)c(-c3ccc4c(c3)CC/C4=N\O)[nH]2)cc1
% of control [8]: 51%

SMILES: N#Cc1cccc(-c2c[nH]c3ncnc(N4CCOCC4)c23)c1
% of control [9]: 93%
